Source: PubChem BioAssay (NCI)
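Cultured in 96-well plates, cells were exposed to test compound for 48 hours across five concentrations. TGI denotes the concentration required for complete inhibition of growth.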

Legend:
Test in all cases: DTP human tumour cell line panel, 48 h
[1] = system: SF-268 CNS
[2] = system: HL-60(TB) leukemia
[3] = system: OVCAR-4 ovarian
[4] = system: MCF7 breast
[5] = system: HCT-15 colon
[6] = system: SF-539 CNS
[7] = system: SW-620 colon
[8] = system: SR leukemia
[9] = system: SF-295 CNS
[10] = system: PC-3 prostate

Work on `O=C(O)C(O)C(O)C(O)C(=O)CO` (centres undefined) yielded a TGI [1] greater than 100 µM, a TGI [2] greater than 100 µM and a TGI [3] greater than 100 µM. For the same molecule, the TGI [4] was greater than 100 µM, the TGI [5] was greater than 100 µM and the TGI [6] was greater than 100 µM. The TGI [7] was greater than 100 µM, the TGI [8] was greater than 100 µM and the TGI [9] was greater than 100 µM. The TGI [10] was greater than 100 µM.

For `Nc1ccc(-c2nc3cc(F)ccc3s2)cc1CO`, the TGI [1] was 68.8 µM, the TGI [2] was greater than 100 µM and the TGI [3] was greater than 100 µM. The TGI [4] was 19.7 µM, the TGI [5] was greater than 100 µM and the TGI [6] was 46.7 µM. The TGI [7] was greater than 100 µM, the TGI [9] was 34.8 µM and the TGI [10] was greater than 76.1 µM.

For `O=S(=O)(O)c1cc(N=[N+]([O-])c2cc(S(=O)(=O)O)c3ccccc3c2)cc2ccccc12`, the TGI [1] was greater than 100 µM, the TGI [2] was greater than 100 µM and the TGI [3] was 38.2 µM. For the same molecule, the TGI [4] was greater than 100 µM, the TGI [5] was greater than 100 µM and the TGI [6] was 60.2 µM. It also gave a TGI [7] greater than 100 µM, a TGI [8] greater than 100 µM and a TGI [9] greater than 100 µM. It also gave a TGI [10] greater than 100 µM.

Molecule `Cc1ccccc1NC(=O)CC(=O)N1N=C(N2c3ccccc3Sc3ccccc32)CC1c1ccccc1` (centres undefined) has a TGI [1] greater than 100 µM, a TGI [3] greater than 100 µM and a TGI [5] greater than 100 µM. For the same molecule, the TGI [6] was greater than 100 µM, the TGI [7] was greater than 100 µM and the TGI [8] was greater than 100 µM. The TGI [9] was greater than 100 µM.

In the case of `O=C1/C(=C\c2ccc(F)cc2)CCOc2c1ccc1ccccc21`, the TGI [1] is reported as 74.9 µM, the TGI [2] is reported as greater than 72.4 µM and the TGI [3] is reported as greater than 100 µM. For the same molecule, the TGI [4] was 51.9 µM, the TGI [5] was greater than 100 µM and the TGI [6] was 48.5 µM. The TGI [7] was greater than 100 µM, the TGI [9] was 70.3 µM and the TGI [10] was greater than 100 µM.

With `COc1ccc(C2c3cc4c(cc3OC(O)(CO)C2C(=O)O)OCO4)cc1` (centres undefined) (tested in a mixture with another compound) the TGI [1] was 94.3 µM, the TGI [2] was 41.7 µM and the TGI [3] was greater than 100 µM. The TGI [5] was 35.6 µM, the TGI [6] was 43.6 µM and the TGI [7] was 37.6 µM. For the same molecule, the TGI [8] was 56.2 µM and the TGI [9] was 57.3 µM.

`O=c1[nH]c(Nc2ccc(Cl)cc2)nc2nc[nH]c12` showed a TGI [1] greater than 100 µM, a TGI [2] greater than 100 µM and a TGI [3] greater than 100 µM. It also gave a TGI [4] greater than 100 µM, a TGI [5] greater than 100 µM and a TGI [6] greater than 100 µM. For the same molecule, the TGI [7] was greater than 100 µM, the TGI [8] was greater than 100 µM and the TGI [9] was greater than 100 µM. It also gave a TGI [10] greater than 100 µM.

`C1=CC(=[N+]2N=C(c3ccccc3)CC2c2ccccc2)C=CC1=C1SC(c2ccccc2)(c2ccccc2)c2ccccc21` (centres undefined) was tested, and the TGI [1] was greater than 100 µM, the TGI [2] was greater than 100 µM and the TGI [4] was greater than 100 µM. For the same molecule, the TGI [5] was greater than 100 µM, the TGI [6] was greater than 100 µM and the TGI [7] was greater than 100 µM. It also gave a TGI [8] greater than 100 µM, a TGI [9] greater than 100 µM and a TGI [10] greater than 100 µM.

`O=C1c2ccccc2C(C2c3ccccc3C(=O)c3cc(Br)ccc32)c2ccc(Br)cc21` (centres undefined) showed a TGI [1] greater than 100 µM, a TGI [3] greater than 100 µM and a TGI [4] greater than 100 µM. The TGI [5] was greater than 100 µM, the TGI [7] was greater than 100 µM and the TGI [9] was greater than 100 µM. For the same molecule, the TGI [10] was greater than 100 µM.
